Numbers after ± are expanded uncertainties.
Conditions: 101 kPa, Liquid, HP 4194A impedance-gain phase analyzer

C[S+](C)[O-] [dimethyl sulfoxide]
Conditions | electrical conductivity [S/m]
293.15 K | 0.000188 ± 3.8e-06
295.15 K | 0.000201 ± 4e-06
297.15 K | 0.000211 ± 4.2e-06
299.15 K | 0.000225 ± 4.5e-06
301.15 K | 0.000236 ± 4.7e-06
303.15 K | 0.000248 ± 5e-06
305.15 K | 0.000262 ± 5.2e-06
307.15 K | 0.000274 ± 5.5e-06
309.15 K | 0.000287 ± 5.7e-06
311.15 K | 0.0003 ± 6e-06
313.15 K | 0.000315 ± 6.3e-06
315.15 K | 0.000328 ± 6.6e-06
317.15 K | 0.000341 ± 6.8e-06
319.15 K | 0.000355 ± 7.1e-06
321.15 K | 0.000369 ± 7.4e-06
323.15 K | 0.000384 ± 7.7e-06
325.15 K | 0.000399 ± 8e-06
327.15 K | 0.000419 ± 8.4e-06
329.15 K | 0.000437 ± 8.7e-06
331.15 K | 0.000455 ± 9.1e-06
333.15 K | 0.000474 ± 9.5e-06

— the NIST ThermoML archive (doi:10.1021/je400402n)
